# In patent US5055476A, “3-(1,2-benzisoxazol-3-yl)-4-pyridinamines and derivatives” (Hoechst-Roussel Pharmaceuticals Incorporated, priority 1990, dated 1991):
# Key:
# [1] = tested on: ear edema induced by topical application of TPA; assay: TPA-Induced Ear Edema (TPAEE); format: in vivo, Female Swiss Webster mice; details: for TPAEE (change in TPA-induced ear edema): 10 μg/ear topical, TPA 10 μg/ear, five hours
# Method: The purpose of this assay was to determine the ability of a topically-applied compound to prevent ear edema induced by topical application of TPA (phorbol 12-myristate acetate). Female Swiss Webster mice topically received TPA (10 μg/ear) on the right ear and vehicle on the left ear. The test compound (10 μg/ear) was applied to both ears. After five hours, the animals were sacrificed and an ear punch (4 mm) was taken from each ear. The difference in right and left ear punch weights for each animal was determined to assess activity. […] See Young, J. M. et al., J. Invest. Dermatol., 80 (1983), pp. 48-52.
# [2] = tested on: phenyl-para-quinone writhing; assay: phenyl-para-quinone writhing assay in mice (analgesia); format: in vivo
# From the text: The compounds of the present invention are useful as analgesic agents. […] Exptl. Biol. Med., 95, 729 (1957)].
# [3] = tested on: Scopolamine Induced Memory Deficit; assay: Dark Avoidance Assay (reversal of scopolamine induced memory deficit); format: in vivo; details: mice
# Method: In this assay, mice are tested for their ability to remember an unpleasant stimulus for a period of 24 hours. A mouse is placed in a chamber that contains a dark compartment; a strong incandescent light drives it to the dark compartment, where an electric shock is administered through metal plates on the floor. The animal is removed from the testing apparatus and tested again, 24 hours later, for the ability to remember the electric shock.
smiles,measurement,setting,value
"C[C@]12CCC(=O)C=C1CC[C@@H]1[C@@H]2[C@@H](O)C[C@@]2(C)[C@H]1CC[C@]2(O)C(=O)CO [hydrocortisone, reference compound]",ED50 (TPA-induced ear edema),"[1]; standard, topical, mice",47 μg/ear
"Nc1ccncc1-c1noc2ccccc12.O=C(O)/C=C\C(=O)O [3-(1,2-Benzisoxazol-3-yl)-4-pyridinamine maleate]",% Inhibition of Writhing,"[2]; 20 mg/kg of body wt. s.c., mice",40%
same,% of Animals with Scopolamine Induced Memory Deficit Reversal,"[3]; 1.0 mg/kg s.c., 24 hours",21%
same,% of Animals with Scopolamine Induced Memory Deficit Reversal,"[3]; 10.0 mg/kg s.c., 24 hours",33%
same,TPAEE (change in TPA-induced ear edema),[1],-29%
"CC(C)(C)C(=O)Nc1ccncc1-c1noc2ccccc12 [N-[3-(1,2-Benzisoxazol-3-yl)-4-pyridinyl]-2,2-dimethylpropanamide]",% of Animals with Scopolamine Induced Memory Deficit Reversal,"[3]; 3.0 mg/kg s.c., 24 hours",20%
same,TPAEE (change in TPA-induced ear edema),[1],-23%
"CNC(=O)Oc1ccc2c(c1)[C@]1(C)CCN(C)[C@@H]1N2C [Physostigmine, reference compound]",% of Animals with Scopolamine Induced Memory Deficit Reversal,"[3]; 0.31 mg/kg s.c., 24 hours (reference)",20%
"CCC(=O)O[C@](Cc1ccccc1)(c1ccccc1)[C@H](C)CN(C)C [Propoxyphene, reference compound]",% Inhibition of Writhing,"[2]; 3.9 mg/kg of body wt. s.c., mice (standard)",50%
